Reference: patent US20120220537A1, “9-AMINOACRIDINE DERIVATIVES, THEIR PREPARATION AND USES” (ARIEL-UNIVERSITY RESEARCH AND DEVELOPMENT COMPANY LTD., priority 2009, published 2012)
“Also recorded” adds a separate entry of the source. Like-named read-outs stand apart in the source and are kept apart here.

Assays:
Type in all cases: cell-based
[1] = tested on: H1299 (lung carcinoma); experiment: In vitro cytotoxicity, neutral red uptake; details: 24 h treatment, read-out: anticancer activity (IC50) H1299
Description: (§1) Cells (250000/well) were cultured in 24-well plates for 24 h to 70-80% confluence or cells (20000/well) were cultured in 96-well plates for 24 h or overnight to 70-80% confluence. Four 24-well plates and one 96-well plate have been seeded. The following concentrations of the compounds were examined (each one in triplicate)-0 microgram/μl, 0.05 microgram/ml, 0.5 microgram/ml, 5 microgram/ml, 50 microgram/ml. The volume of wells in 24-well plates was 0.5 ml while that of 96-well plates was 0.1 ml. After the 24 h treatment the culture medium in the wells were replaced with 0.5 ml fresh medium containing 1:100 dilution of neutral red (10 microliters/1 ml). The plates were incubated for 2 h in a dark in culture incubator. The medium was aspirated and the cells washed twice with 0.5/0.1 ml of solution containing 1% CaCl2 and 0.5% formaldehyde. The dye was extracted from cells upon addition of 0.5/0.1 ml 1% glacial acetic acid in 50% ethanol with 10 min incubation at room temperature. The absorbance was measured spectrophotometrically at a wavelength of 540 nm. The background absorbance measurement of the multiwell plates was done at 690 nm and subtract from 540 nm.

[2] = tested on: HT29 (colon carcinoma); experiment: In vitro cytotoxicity, neutral red uptake; details: 24 h treatment, read-out: anticancer activity (IC50) HT29
Description: as §1

[3] = tested on: MCF-7 (breast cancer); experiment: In vitro cytotoxicity, neutral red uptake; details: MCF7 wt cells, 24 h treatment, read-out: anticancer activity (IC50) MCF7 wt
Description: as §1

[4] = tested on: MCF-7mito (mitoxantrone selected and associated with MDR phenomena breast cancer); experiment: In vitro cytotoxicity, neutral red uptake; details: read-out: anticancer activity (IC50) MCF7 mito
Description: as §1

[5] = tested on: MDM-MD-A31 (renal cancer); experiment: In vitro cytotoxicity, neutral red uptake; details: MDM-MD-A31 cells, 24 h treatment, read-out: anticancer activity (IC50) MDM-MD-A31
Description: as §1

[6] = tested on: NCI-ADR (associated with multidrug resistance (MDR) phenomena ovarian cancer); experiment: In vitro cytotoxicity, neutral red uptake; details: NCIADR cells, 24 h treatment, read-out: anticancer activity (IC50) NCIADR
Description: as §1

[7] = tested on: OVCAR8 (ovarian cancer); experiment: In vitro cytotoxicity, neutral red uptake; details: 24 h treatment, read-out: anticancer activity (IC50) OVCAR8
Description: as §1

[8] = tested on: cancer cell lines MDM-MD-A31, MCF-7, HT29, OVCAR8, NCI-ADR, MCF-7mito and H1299; experiment: In vitro cytotoxicity, all tested cancer cell lines; details: statement in words
Description: as §1

[9] = Homo sapiens, NCI-H1299, H1299 cells
[10] = Homo sapiens, HT-29, HT29 cells
[11] = Homo sapiens, MCF7 mito cells, 24 h treatment, neutral red
[12] = Homo sapiens, OVCAR-8, OVCAR8 cells

Molecule | IC50 [1, 9] [µM] | IC50 [2, 10] [µM] | IC50 ([3]; Homo sapiens) [µM] | IC50 [4, 11] [µM] | IC50 [5] [µM] | IC50 ([6]; Homo sapiens, NCI/ADR-RES) [µM] | IC50 [7, 12] [µM] | also measured
O=C(O)c1ccccc1CNc1c2ccccc2nc2ccccc12 [Compound 1, 2-(acridin-9-ylaminomethyl)benzoic acid] | 74.3 | 1.2 | 20.2 | 0.76 | 10.3 | 12.2 | 0.71 | cytotoxicity compared with reference or other tested compounds [8]: more cytotoxic than the corresponding 9-aminoacridine
O=[N+]([O-])c1ccc(Nc2c3ccccc3nc3ccccc23)c([N+](=O)[O-])c1 [Compound 12, N-(2,4-dinitrophenyl)acridin-9-amine] | > 100 | 71.3 | 89.1 | – | > 100 | 15.4 | 33.8 | IC50 ([4]; Homo sapiens, MCF7, 24 h): 7.2 µM
O=[N+]([O-])c1ccc(O)cc1CNc1c2ccccc2nc2ccccc12 [Compound 4, N-(2-nitro-5-hydroxy-benzyl)acridin-9-amine] | > 100 | 7.14 | 58.6 | 18.4 | 75.6 | 86.4 | 15.4 | –
O=[N+]([O-])c1ccccc1Nc1c2ccccc2nc2ccccc12 [Compound 10, N-(2-nitrophenyl)acridin-9-amine] | > 100 | 74.2 | > 100 | 46.7 | > 100 | 40.3 | > 100 | –
O=C(NC(CO)C(=O)O)c1ccc(Nc2c3ccccc3nc3ccccc23)c([N+](=O)[O-])c1 (stereo not drawn) [Compound 42, (2-(4-(acridin-9-ylamino)-3-nitrobenzamido)-3-hydroxypropanoic acid)] | – | 2.2 | – | 4.5 | 0.4 | – | – | –
O=C1C(Cl)=C(Nc2c3ccccc3nc3ccccc23)C(=O)c2ccccc21 [Compound 39, 2-(acridin-9-ylamino)-3-chloronaphthoquinone] | – | – | – | 0.8 | 0.15 | – | 1.2 | –
O=[N+]([O-])c1cc([N+](=O)[O-])c(Nc2c3ccccc3nc3ccccc23)cc1F [Compound 18, N-(2,4-dinitro-5-fluorophenyl)acridin-9-amine] | – | – | – | – | 0.3 | – | – | –
Oc1ccc2ccccc2c1CNc1c2ccccc2nc2ccccc12 [Compound 8, N-(2-hydroxy-naphthylmethyl)acridin-9-amine] | 62.6 | 2.6 | 14.1 | 1.8 | 13.2 | 42.3 | 9.1 | –
NC(=O)c1ccc(Nc2c3ccccc3nc3ccccc23)c([N+](=O)[O-])c1 [Compound 14, 4-(acridin-9-ylamino)-3-nitrobenzamide] | – | 3.6 | – | 7.2 | 0.6 | – | – | –
Nc1c2ccccc2nc2ccccc12 [9-aminoacridine] | 32.8 | 2.25 | 11.2 | 163 | 1.5 | 21 | 1.7 | –
amsacrine [reference compound] | – | – | – | – | 17.2 | – | – | IC50 ([1]; H1299 cells): 119 µM; IC50 ([2]; HT29 cells): 2.2 µM; IC50 [3]: 19.8 µM; IC50 ([4]; MCF7 mito cells, 24 h treatment, neutral red): 1.5 µM; IC50 [6]: 16.1 µM; IC50 ([7]; OVCAR8 cells): 21.9 µM
O=C1C(Br)=C(Br)C(=O)C(Nc2c3ccccc3nc3ccccc23)=C1Br [Compound 38, 2-(acridin-9-ylamino)-3,5,6-tribromobenzoquinone] | – | – | – | – | – | – | 3.7 | –
COc1cc([N+](=O)[O-])ccc1Nc1c2ccccc2nc2ccccc12 [Compound 20, N-(2-methoxy-4-nitrophenyl)acridin-9-amine] | – | 1.2 | – | – | 0.1 | – | 0.6 | –
CCOC1=C(Nc2c3ccccc3nc3ccccc23)C(=O)c2c(O)ccc(O)c2C1=O [Compound 41, 2-(acridin-9-ylamino)-3-ethoxy-5,8-dihydroxy-naphthoquinone] | 0.14 | 1.1 | – | 0.5 | 0.06 | – | – | cytotoxicity compared with reference or other tested compounds [8]: greater activity against all above mentioned cell lines than the anticancer drug amsacrine; also recorded: the most potent among the tested compounds
O=[N+]([O-])c1cccnc1Nc1c2ccccc2nc2ccccc12 [Compound 21, N-(3-nitropyrid-2-yl)acridin-9-amine] | 0.7 | – | – | 1.6 | 0.8 | – | – | –
O=C(O)c1ccc(Nc2c3ccccc3nc3ccccc23)c([N+](=O)[O-])c1 [Compound 13, 4-(acridin-9-ylamino)-3-nitrobenzoic acid] | 86.4 | 3.6 | 11.6 | 7.2 | 0.6 | 54.2 | 6.5 | cytotoxicity compared with reference or other tested compounds [8]: more cytotoxic than the corresponding 9-aminoacridine
NCCCCC(NC(=O)c1ccc(Nc2c3ccccc3nc3ccccc23)c([N+](=O)[O-])c1)C(N)=O (stereo not drawn) [Compound 46, 4-(acridin-9-ylamino)-N-(1,6-diamino-1-oxohex-2-yl)-3-nitro-benzamide] | > 100 | 7.14 | 58.6 | 18.4 | 75.6 | 86.4 | 15.4 | –
